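Exposure lasted 48 hours, with cells grown in 96-well plates and compounds tested at five concentrations. At the TGI there is no net growth.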 Bounds are passed on as bounds.

Test systems include UACC-257 melanoma; 786-0 renal; MDA-N; OVCAR-5 ovarian; HCT-116 colon; K-562 leukemia; PC-3 prostate; NCI-H23 lung; ACHN renal; BT-549 breast; SNB-19 CNS.
What all share (test): NCI anticancer screen, dose series, 48 h

As to `COc1cc2ccnc3c2c(c1O)N(C)C=C3`, the TGI in the assay on UACC-257 melanoma was 32.5 µM; in the assay on 786-0 renal, 21.8 µM; in the assay on MDA-N, above 38.4 µM; with OVCAR-5 ovarian, 33.9 µM; with HCT-116 colon it was 16.4 µM; with K-562 leukemia it was above 100 µM. Besides, the TGI in the assay with PC-3 prostate was 29.5 µM; with NCI-H23 lung, 37.5 µM; in the assay with ACHN renal it was 27.6 µM; in the assay on BT-549 breast, 22.9 µM; in the assay on SNB-19 CNS it was above 62.9 µM.

Consider `O=C(NCCNCCO)N/N=C/c1ccc(Cl)cc1`, for which the TGI in the assay with UACC-257 melanoma, with 786-0 renal, with MDA-N, in the assay with OVCAR-5 ovarian, with HCT-116 colon and in the assay on K-562 leukemia was above 100 µM each time. The TGI in the assay with PC-3 prostate, with NCI-H23 lung, in the assay on ACHN renal, in the assay with BT-549 breast and in the assay on SNB-19 CNS was above 100 µM throughout.

Turning to `CSCCC(NC(=O)OC(C)(C)C)C(=O)NCCNc1ccc(NCCNC(=O)C(CCSC)NC(=O)OC(C)(C)C)c2c1C(=O)c1ccccc1C2=O` (centres undefined), the TGI in the assay with UACC-257 melanoma was 12.1 µM; in the assay on 786-0 renal, 12.8 µM; in the assay with MDA-N, 7.03 µM; with OVCAR-5 ovarian, 17.2 µM; in the assay on HCT-116 colon it was above 29.6 µM; in the assay on K-562 leukemia it was above 32.7 µM. Moreover, the TGI amounted to 17.7 µM in the assay with PC-3 prostate; 15.9 µM with NCI-H23 lung; 30.3 µM in the assay on ACHN renal; 9.59 µM in the assay on BT-549 breast; 16.6 µM in the assay with SNB-19 CNS.

In the case of `CCN(CC)CCCNc1ccc2nnn3c4ccc(O)cc4c(=O)c1c23`, the TGI turned out to be 32.6 µM with UACC-257 melanoma; 19.6 µM in the assay on 786-0 renal; 20.9 µM in the assay on MDA-N; 26.8 µM with OVCAR-5 ovarian; 16.3 µM with HCT-116 colon; 53.3 µM with K-562 leukemia. For the same compound, the TGI in the assay with PC-3 prostate was determined as 19.3 µM; in the assay with NCI-H23 lung, 23.5 µM; with ACHN renal, 17.3 µM; with BT-549 breast it was 27 µM; in the assay on SNB-19 CNS, 22.8 µM.

`N#Cc1c2c(c(N3CCOCC3)n3c1nc1ccccc13)CCCC2`: the TGI with UACC-257 melanoma was 65.9 µM; in the assay with 786-0 renal, 41.3 µM; with MDA-N, 38.7 µM; with OVCAR-5 ovarian, 41.8 µM; in the assay on HCT-116 colon, 31.7 µM; with K-562 leukemia, above 100 µM. Also, the TGI was 50.3 µM with PC-3 prostate; 47.3 µM in the assay on NCI-H23 lung; 31.3 µM in the assay on ACHN renal; above 100 µM with BT-549 breast; 32 µM in the assay with SNB-19 CNS.

In the case of `O=C(Nc1cccc(-c2cn3ccccc3n2)c1)c1ccncc1`, the TGI in the assay on UACC-257 melanoma was 73.5 µM; with 786-0 renal it was above 100 µM; in the assay with MDA-N, above 100 µM; in the assay on OVCAR-5 ovarian it was above 100 µM; in the assay with HCT-116 colon, above 100 µM; in the assay on K-562 leukemia, 61 µM. Besides, the TGI with PC-3 prostate is above 100 µM; in the assay on NCI-H23 lung, 65 µM; in the assay with ACHN renal it was above 100 µM; in the assay with BT-549 breast, 72 µM; with SNB-19 CNS, above 100 µM.

Regarding `O=C1C=CC(=O)c2ncccc21`, the TGI is 11.2 µM with UACC-257 melanoma; 7.61 µM in the assay on 786-0 renal; 16.1 µM with MDA-N; 32.2 µM in the assay on OVCAR-5 ovarian; 4.27 µM with HCT-116 colon; above 24.7 µM in the assay on K-562 leukemia. Further, the TGI in the assay on PC-3 prostate is 22.3 µM; in the assay on NCI-H23 lung, 23.6 µM; in the assay on ACHN renal, 7.98 µM; with BT-549 breast it was 15.5 µM; in the assay on SNB-19 CNS, 19.1 µM.

As to `O=C(NCCO)c1ccc(Cl)cc1`, the TGI in the assay on UACC-257 melanoma, with 786-0 renal, in the assay with MDA-N, in the assay with OVCAR-5 ovarian, in the assay on HCT-116 colon and with K-562 leukemia was above 100 µM in each case. For the same compound, the TGI with PC-3 prostate, in the assay on NCI-H23 lung, in the assay on ACHN renal, in the assay on BT-549 breast and in the assay on SNB-19 CNS was above 100 µM in each case.

As for `COC(=O)C1(C(=O)OC)N=C(C)OC1C(C)C` (centres undefined), the TGI in the assay with UACC-257 melanoma, in the assay on 786-0 renal, in the assay on MDA-N, in the assay on OVCAR-5 ovarian, in the assay on HCT-116 colon and in the assay on K-562 leukemia was above 100 µM in each case. Besides, the TGI with PC-3 prostate, in the assay with NCI-H23 lung, in the assay on ACHN renal, with BT-549 breast and with SNB-19 CNS was above 100 µM throughout.

Take `O=C(N=Nc1ccccc1Br)NNc1ccccc1Br`: the TGI with UACC-257 melanoma, in the assay on 786-0 renal, in the assay on MDA-N, in the assay on OVCAR-5 ovarian, in the assay on HCT-116 colon and in the assay on K-562 leukemia was above 100 µM throughout. Besides, the TGI in the assay on PC-3 prostate, with NCI-H23 lung, in the assay on ACHN renal, in the assay on BT-549 breast and in the assay on SNB-19 CNS was above 100 µM each time.

Regarding `CC(C)(C)OC(=O)N1C(OP(=O)(Oc2ccccc2)Oc2ccccc2)=COc2cccnc21`, the TGI with UACC-257 melanoma, in the assay with 786-0 renal, in the assay with MDA-N, in the assay with OVCAR-5 ovarian, in the assay on HCT-116 colon and with K-562 leukemia was above 100 µM in each case. Besides, the TGI in the assay with PC-3 prostate, in the assay on NCI-H23 lung, in the assay with ACHN renal, in the assay on BT-549 breast and with SNB-19 CNS was above 100 µM in each case.

Take `O=C1[C@@H]2Cc3c([nH]c4ccccc34)C(C3CCCCC3)N2C(=O)[C@@H]2CCCN12` (some centres undefined): the TGI with UACC-257 melanoma was 80.7 µM; with 786-0 renal, 75.9 µM; in the assay with MDA-N, above 100 µM; in the assay on OVCAR-5 ovarian, above 100 µM; in the assay with HCT-116 colon, 74.5 µM; in the assay with K-562 leukemia it was above 100 µM. The TGI with PC-3 prostate was 60.6 µM; with NCI-H23 lung it was above 100 µM; in the assay on ACHN renal, above 100 µM; in the assay with BT-549 breast, 88 µM; in the assay on SNB-19 CNS, above 100 µM.

As to `COC(=O)C(COC(=O)/C=C/c1ccc(OC(C)=O)c(OC(C)=O)c1)OC(=O)/C=C/c1ccc(OC(C)=O)c(OC(C)=O)c1` (centres undefined), the TGI with UACC-257 melanoma stood at 29.9 µM; with 786-0 renal, 24 µM; in the assay on MDA-N, 21.7 µM; in the assay with OVCAR-5 ovarian, 36.8 µM; with HCT-116 colon it was 16.3 µM; in the assay on K-562 leukemia, 31.2 µM. The TGI in the assay with PC-3 prostate amounted to 23.4 µM; in the assay on NCI-H23 lung, 71.8 µM; in the assay on ACHN renal it was 27.8 µM; in the assay with BT-549 breast it was 33.5 µM; in the assay on SNB-19 CNS, 22.2 µM.

As to `Cc1ccc2c(c1)OC1Nc3ccccc3C1=C2O` (centres undefined), the TGI was 69.3 µM in the assay with UACC-257 melanoma; 66 µM with 786-0 renal; 68.1 µM with MDA-N; above 100 µM with OVCAR-5 ovarian; 65.1 µM in the assay with HCT-116 colon; above 100 µM in the assay on K-562 leukemia. Also, the TGI is 39.6 µM in the assay on PC-3 prostate; 74.6 µM in the assay on NCI-H23 lung; 60.8 µM in the assay on ACHN renal; 66.1 µM with BT-549 breast; above 100 µM with SNB-19 CNS.

As to `O=C(O)c1ccccc1/C=N\NC1=NCCCCN1`, the TGI with UACC-257 melanoma, in the assay with 786-0 renal, in the assay with MDA-N, with OVCAR-5 ovarian, with HCT-116 colon and with K-562 leukemia was above 100 µM in each case. Further, the TGI in the assay with PC-3 prostate, in the assay with NCI-H23 lung, in the assay on ACHN renal, with BT-549 breast and in the assay with SNB-19 CNS was above 100 µM throughout.

As for `COC1/C=C/C(C)C(C(C)C(OC)C(C)CCC(=O)C(C)C(CCC(=O)O)OC)OC(=O)/C=C/C=C(\C)CC(OC)CC2=CC(=O)O[C@@H](C(C)C(OC)CC(OC)/C=C/C(C)C(OC)C1)[C@H]2O` (some centres undefined), the TGI is above 3.9 µM with UACC-257 melanoma; above 4.55 µM in the assay on 786-0 renal; above 5 µM in the assay on MDA-N; above 5 µM in the assay on OVCAR-5 ovarian; above 5 µM with HCT-116 colon; above 5 µM in the assay with K-562 leukemia. The TGI in the assay with PC-3 prostate is 2.82 µM; in the assay on NCI-H23 lung, above 5 µM; with ACHN renal it was 2.93 µM; in the assay with BT-549 breast, 2.85 µM; with SNB-19 CNS it was above 5 µM.

As for `O=C1OS2(OCc3cccc4cccc2c34)c2ccccc21` (centres undefined), the TGI with UACC-257 melanoma, with 786-0 renal, with MDA-N, in the assay with OVCAR-5 ovarian, with HCT-116 colon and with K-562 leukemia was above 100 µM throughout. The TGI in the assay on PC-3 prostate, with NCI-H23 lung, in the assay on ACHN renal, in the assay on BT-549 breast and in the assay on SNB-19 CNS was above 100 µM throughout.

As to `NC(N)=N/N=C/c1nc2sccn2c1[N+](=O)[O-]`, the TGI in the assay with UACC-257 melanoma is 31.7 µM; in the assay with 786-0 renal it was above 100 µM; in the assay with MDA-N, 39.1 µM; in the assay on OVCAR-5 ovarian, above 100 µM; in the assay with HCT-116 colon, 59.6 µM; in the assay with K-562 leukemia, 85.8 µM. For the same compound, the TGI with PC-3 prostate is above 100 µM; in the assay with NCI-H23 lung, 36.7 µM; in the assay on ACHN renal it was above 100 µM; with BT-549 breast, above 100 µM; in the assay with SNB-19 CNS, above 100 µM.

As to `CC1(C)[C@@H]2C[C@H]1c1cnc(-c3ccccn3)cc1C2[C@@H]1c2cc(-c3ccccn3)ncc2[C@@H]2C[C@H]1C2(C)C` (some centres undefined), the TGI in the assay with UACC-257 melanoma, in the assay with 786-0 renal, in the assay with MDA-N, in the assay on OVCAR-5 ovarian, in the assay on HCT-116 colon and with K-562 leukemia was above 100 µM each time. For the same compound, the TGI with PC-3 prostate, in the assay on NCI-H23 lung, in the assay on ACHN renal, in the assay with BT-549 breast and in the assay with SNB-19 CNS was above 100 µM in each case.

(Values after PubChem BioAssay (NCI).)
